Data taken from ChEMBL document CHEMBL5465560, “Selectivity Literature for EUbOPEN Chemogenomic Library” (2024).

Assays:
[1] = target: Ribosomal protein S6 kinase alpha-1 (Homo sapiens, UniProt Q15418); assay: Selectivity interaction (ActivX KiNativ screen (kinase selectivity in THP-1 cell lysates)) EUB0000639a RPS6KA1; type: subcellular; settings: lysate, at 5 µM
[2] = target: T1, Serine/threonine-protein kinase TAO2 (Homo sapiens) (UniProt Q9UL54); assay: Selectivity interaction (ActivX KiNativ screen (kinase selectivity in THP-1 cell lysates)) EUB0000639a TAOK2; type: subcellular; settings: lysate
T1 sequence (whole entry): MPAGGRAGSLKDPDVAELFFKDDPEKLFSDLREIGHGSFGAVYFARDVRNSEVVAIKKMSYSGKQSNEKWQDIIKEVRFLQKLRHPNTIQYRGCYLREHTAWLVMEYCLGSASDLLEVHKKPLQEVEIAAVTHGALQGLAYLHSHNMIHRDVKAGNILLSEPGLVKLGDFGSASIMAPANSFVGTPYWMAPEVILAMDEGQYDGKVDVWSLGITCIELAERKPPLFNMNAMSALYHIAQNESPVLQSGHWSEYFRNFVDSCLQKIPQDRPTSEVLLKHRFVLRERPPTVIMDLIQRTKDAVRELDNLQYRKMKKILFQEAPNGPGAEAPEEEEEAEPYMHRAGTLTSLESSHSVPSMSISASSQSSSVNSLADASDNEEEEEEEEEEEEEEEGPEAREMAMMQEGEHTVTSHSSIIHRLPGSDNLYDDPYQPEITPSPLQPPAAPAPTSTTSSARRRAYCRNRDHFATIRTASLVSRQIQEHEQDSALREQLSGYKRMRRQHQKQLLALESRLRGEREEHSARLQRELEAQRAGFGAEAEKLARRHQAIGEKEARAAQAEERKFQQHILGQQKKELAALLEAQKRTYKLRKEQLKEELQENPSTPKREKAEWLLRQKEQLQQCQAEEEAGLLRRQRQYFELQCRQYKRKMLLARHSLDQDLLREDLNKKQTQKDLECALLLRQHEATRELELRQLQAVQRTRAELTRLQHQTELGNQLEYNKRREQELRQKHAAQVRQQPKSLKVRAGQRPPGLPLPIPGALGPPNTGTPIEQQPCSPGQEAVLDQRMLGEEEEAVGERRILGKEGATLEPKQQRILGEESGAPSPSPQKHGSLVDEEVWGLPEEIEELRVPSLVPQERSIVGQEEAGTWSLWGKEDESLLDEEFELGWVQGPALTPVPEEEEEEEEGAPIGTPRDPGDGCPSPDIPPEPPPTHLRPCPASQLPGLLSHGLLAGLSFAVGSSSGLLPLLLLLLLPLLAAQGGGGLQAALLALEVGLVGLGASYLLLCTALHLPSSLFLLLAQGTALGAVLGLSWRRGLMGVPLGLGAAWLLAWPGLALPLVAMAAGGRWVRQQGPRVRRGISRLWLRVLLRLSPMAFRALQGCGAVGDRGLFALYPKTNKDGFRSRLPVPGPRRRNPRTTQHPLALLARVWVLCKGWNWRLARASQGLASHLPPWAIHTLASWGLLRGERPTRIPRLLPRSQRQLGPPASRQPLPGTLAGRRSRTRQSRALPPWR

[3] = target: Beta-1 adrenergic receptor (Homo sapiens, UniProt P08588); assay: Selectivity interaction (Eurofins CEREP Diversity Profile (receptors and ion channels)) EUB0000279b ADRB1; settings: at 10 µM
[4] = target: T2, Membrane-associated tyrosine- and threonine-specific cdc2-inhibitory kinase (Homo sapiens) (UniProt Q99640); settings: at 10 µM
T2 sequence (whole entry): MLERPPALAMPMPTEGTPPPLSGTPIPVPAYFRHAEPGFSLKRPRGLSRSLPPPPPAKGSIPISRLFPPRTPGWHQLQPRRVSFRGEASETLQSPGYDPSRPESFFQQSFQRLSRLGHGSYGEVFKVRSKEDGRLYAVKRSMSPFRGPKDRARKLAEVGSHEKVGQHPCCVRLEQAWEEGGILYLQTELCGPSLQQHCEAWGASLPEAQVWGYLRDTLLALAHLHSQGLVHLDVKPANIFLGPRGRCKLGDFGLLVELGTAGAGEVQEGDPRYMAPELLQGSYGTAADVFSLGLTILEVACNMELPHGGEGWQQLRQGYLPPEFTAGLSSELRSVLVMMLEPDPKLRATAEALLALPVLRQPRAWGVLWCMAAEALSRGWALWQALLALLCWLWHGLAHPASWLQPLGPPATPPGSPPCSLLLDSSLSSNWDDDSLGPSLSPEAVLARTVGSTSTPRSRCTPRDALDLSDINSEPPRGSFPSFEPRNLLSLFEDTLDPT

[5] = target: Potassium voltage-gated channel subfamily A member 1 (Homo sapiens) (UniProt Q09470); assay: Selectivity interaction (Panel of non-epigenetic targets (kinases, GPCRs, ion channels, and transporters, Eurofins) ) EUB0000271b KCNA1; settings: at 1 µM
Chain of Potassium voltage-gated channel subfamily A member 1 (Homo sapiens) (Q09470 whole entry): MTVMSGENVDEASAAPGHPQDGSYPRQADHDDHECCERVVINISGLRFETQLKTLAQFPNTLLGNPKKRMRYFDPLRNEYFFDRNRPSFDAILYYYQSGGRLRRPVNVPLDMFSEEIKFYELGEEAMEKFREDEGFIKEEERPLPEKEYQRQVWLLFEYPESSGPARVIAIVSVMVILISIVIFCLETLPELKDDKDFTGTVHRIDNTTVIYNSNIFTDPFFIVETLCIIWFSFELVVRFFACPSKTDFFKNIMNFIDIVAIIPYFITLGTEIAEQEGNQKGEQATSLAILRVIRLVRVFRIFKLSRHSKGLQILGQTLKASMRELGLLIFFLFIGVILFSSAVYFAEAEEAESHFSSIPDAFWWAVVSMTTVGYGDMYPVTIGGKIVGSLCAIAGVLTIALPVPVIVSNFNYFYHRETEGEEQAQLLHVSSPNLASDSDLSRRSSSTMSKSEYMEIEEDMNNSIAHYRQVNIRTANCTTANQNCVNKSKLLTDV

[6] = target: Mitogen-activated protein kinase 6 (Homo sapiens) (UniProt Q16659); assay: Selectivity interaction (KinomeScan (DiscoverX)) EUB0000229b MAPK6; settings: at 10 µM
Chain of Mitogen-activated protein kinase 6 (Homo sapiens) (Q16659 whole entry): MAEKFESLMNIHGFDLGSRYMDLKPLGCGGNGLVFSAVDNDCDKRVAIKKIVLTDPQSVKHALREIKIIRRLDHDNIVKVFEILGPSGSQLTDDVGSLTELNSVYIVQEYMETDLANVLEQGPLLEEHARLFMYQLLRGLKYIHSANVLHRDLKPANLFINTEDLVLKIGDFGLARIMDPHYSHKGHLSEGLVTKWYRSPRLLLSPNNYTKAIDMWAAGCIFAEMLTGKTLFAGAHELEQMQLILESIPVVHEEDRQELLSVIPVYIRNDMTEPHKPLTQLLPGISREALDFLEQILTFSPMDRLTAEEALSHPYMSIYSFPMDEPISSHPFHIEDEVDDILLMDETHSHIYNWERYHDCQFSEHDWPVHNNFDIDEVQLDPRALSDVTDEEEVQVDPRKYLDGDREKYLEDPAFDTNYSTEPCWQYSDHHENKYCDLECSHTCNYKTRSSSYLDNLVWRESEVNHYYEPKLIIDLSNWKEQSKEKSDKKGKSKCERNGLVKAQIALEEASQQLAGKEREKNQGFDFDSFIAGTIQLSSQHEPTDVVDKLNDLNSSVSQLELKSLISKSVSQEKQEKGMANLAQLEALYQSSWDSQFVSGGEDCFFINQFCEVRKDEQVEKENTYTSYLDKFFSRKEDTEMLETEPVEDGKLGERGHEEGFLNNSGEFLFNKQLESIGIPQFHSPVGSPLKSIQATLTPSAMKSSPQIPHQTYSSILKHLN

[7] = target: Serine/threonine-protein kinase PAK 2 (Homo sapiens) (UniProt Q13177); assay: Selectivity interaction (KinomeScan (DiscoverX)) EUB0001079a PAK2; settings: at 1 µM
[8] = target: Protein-tyrosine kinase 2-beta (Homo sapiens) (UniProt Q14289); assay: Selectivity interaction (KinomeScan (DiscoverX)) EUB0000092b PTK2B; settings: at 10 µM
Chain of Protein-tyrosine kinase 2-beta (Homo sapiens) (Q14289 whole entry, looked up): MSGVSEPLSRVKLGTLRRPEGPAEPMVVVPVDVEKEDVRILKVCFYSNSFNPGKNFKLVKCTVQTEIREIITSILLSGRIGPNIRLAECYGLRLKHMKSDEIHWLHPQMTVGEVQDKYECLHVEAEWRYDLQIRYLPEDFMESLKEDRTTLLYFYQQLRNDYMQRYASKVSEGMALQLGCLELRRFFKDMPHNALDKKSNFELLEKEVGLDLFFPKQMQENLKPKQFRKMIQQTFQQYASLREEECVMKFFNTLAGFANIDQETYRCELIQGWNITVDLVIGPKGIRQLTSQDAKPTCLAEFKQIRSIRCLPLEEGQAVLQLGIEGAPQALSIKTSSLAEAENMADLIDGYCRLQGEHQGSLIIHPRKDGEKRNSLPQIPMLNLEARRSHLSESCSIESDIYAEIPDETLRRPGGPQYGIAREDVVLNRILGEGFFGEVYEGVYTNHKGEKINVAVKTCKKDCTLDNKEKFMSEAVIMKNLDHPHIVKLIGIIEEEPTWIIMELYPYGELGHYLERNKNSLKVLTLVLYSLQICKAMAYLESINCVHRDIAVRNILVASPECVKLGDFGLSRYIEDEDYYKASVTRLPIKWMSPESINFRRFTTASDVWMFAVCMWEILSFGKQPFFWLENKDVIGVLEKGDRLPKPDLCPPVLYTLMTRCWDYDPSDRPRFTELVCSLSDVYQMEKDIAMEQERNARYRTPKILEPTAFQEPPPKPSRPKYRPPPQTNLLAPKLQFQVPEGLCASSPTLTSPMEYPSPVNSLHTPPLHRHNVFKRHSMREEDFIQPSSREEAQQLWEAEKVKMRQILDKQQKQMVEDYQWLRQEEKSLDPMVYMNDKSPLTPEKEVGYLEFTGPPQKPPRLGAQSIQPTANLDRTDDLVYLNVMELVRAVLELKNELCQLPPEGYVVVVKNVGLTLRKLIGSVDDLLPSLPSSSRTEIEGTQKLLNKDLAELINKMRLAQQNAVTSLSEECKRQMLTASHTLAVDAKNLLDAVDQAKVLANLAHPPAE

[9] = target: Myosin light chain kinase 2, skeletal/cardiac muscle (Homo sapiens) (UniProt Q9H1R3); assay: Selectivity interaction (KinomeScan (DiscoverX)) EUB0000045b MYLK2
Chain of Myosin light chain kinase 2, skeletal/cardiac muscle (Homo sapiens) (Q9H1R3 whole entry): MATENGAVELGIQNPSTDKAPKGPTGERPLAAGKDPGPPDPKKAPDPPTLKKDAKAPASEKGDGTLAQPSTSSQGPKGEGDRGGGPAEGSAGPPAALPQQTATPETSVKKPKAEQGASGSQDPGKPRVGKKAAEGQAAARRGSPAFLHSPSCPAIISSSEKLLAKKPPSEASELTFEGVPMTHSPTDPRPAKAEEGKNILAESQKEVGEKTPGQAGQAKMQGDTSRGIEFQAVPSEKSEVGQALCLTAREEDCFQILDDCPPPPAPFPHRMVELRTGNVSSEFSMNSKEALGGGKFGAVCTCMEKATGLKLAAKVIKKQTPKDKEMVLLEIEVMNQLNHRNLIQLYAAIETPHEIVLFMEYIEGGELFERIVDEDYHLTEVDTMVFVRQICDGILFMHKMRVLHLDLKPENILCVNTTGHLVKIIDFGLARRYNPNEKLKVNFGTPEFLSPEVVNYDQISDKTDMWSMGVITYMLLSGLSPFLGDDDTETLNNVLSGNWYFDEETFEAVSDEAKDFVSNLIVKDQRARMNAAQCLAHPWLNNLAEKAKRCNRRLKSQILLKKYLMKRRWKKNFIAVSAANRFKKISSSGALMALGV

[10] = target: Vascular endothelial growth factor receptor 3 (Homo sapiens, UniProt P35916); assay: Selectivity interaction (KinomeScan (DiscoverX)) EUB0000607a FLT4; settings: at 10 µM
Chain of Vascular endothelial growth factor receptor 3 (P35916 whole entry): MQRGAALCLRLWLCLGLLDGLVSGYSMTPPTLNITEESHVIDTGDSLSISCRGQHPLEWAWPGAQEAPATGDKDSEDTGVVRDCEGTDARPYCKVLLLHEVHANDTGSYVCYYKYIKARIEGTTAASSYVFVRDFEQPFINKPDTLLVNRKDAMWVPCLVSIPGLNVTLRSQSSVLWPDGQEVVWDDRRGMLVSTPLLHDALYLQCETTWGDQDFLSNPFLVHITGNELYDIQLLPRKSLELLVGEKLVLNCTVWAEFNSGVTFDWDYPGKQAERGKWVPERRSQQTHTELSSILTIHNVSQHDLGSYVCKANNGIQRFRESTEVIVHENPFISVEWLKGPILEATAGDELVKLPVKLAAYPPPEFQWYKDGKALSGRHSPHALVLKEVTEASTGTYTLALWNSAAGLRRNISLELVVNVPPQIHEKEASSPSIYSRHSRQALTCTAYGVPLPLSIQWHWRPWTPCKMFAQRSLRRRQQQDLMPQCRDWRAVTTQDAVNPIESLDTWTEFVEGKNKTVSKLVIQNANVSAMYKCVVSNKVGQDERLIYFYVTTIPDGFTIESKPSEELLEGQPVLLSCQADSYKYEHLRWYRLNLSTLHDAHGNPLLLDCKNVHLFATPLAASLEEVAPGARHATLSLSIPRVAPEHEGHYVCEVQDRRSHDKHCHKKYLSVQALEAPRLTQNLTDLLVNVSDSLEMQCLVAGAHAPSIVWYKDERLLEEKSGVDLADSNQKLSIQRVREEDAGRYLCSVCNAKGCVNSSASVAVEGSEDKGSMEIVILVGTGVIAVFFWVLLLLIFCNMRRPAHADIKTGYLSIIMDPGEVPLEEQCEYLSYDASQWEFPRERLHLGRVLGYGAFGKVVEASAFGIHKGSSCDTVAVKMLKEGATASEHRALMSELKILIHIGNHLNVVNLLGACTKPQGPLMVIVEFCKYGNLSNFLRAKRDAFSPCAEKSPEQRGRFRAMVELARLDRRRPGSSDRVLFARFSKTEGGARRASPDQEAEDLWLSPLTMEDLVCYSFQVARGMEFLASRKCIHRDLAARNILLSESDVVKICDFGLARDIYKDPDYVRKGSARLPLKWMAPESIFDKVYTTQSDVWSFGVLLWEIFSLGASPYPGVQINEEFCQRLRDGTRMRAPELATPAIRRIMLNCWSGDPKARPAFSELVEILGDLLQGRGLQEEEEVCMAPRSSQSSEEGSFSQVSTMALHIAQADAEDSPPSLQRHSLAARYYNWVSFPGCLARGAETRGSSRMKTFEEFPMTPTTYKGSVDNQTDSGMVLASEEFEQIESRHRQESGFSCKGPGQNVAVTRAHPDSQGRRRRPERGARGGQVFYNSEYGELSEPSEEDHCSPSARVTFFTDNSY

[11] = target: Citron Rho-interacting kinase (Homo sapiens) (UniProt O14578); assay: Selectivity interaction (KinomeScan (DiscoverX)) EUB0000666a CIT; settings: at 10 µM

Chain of Ribosomal protein S6 kinase alpha-1 (Q15418 whole entry): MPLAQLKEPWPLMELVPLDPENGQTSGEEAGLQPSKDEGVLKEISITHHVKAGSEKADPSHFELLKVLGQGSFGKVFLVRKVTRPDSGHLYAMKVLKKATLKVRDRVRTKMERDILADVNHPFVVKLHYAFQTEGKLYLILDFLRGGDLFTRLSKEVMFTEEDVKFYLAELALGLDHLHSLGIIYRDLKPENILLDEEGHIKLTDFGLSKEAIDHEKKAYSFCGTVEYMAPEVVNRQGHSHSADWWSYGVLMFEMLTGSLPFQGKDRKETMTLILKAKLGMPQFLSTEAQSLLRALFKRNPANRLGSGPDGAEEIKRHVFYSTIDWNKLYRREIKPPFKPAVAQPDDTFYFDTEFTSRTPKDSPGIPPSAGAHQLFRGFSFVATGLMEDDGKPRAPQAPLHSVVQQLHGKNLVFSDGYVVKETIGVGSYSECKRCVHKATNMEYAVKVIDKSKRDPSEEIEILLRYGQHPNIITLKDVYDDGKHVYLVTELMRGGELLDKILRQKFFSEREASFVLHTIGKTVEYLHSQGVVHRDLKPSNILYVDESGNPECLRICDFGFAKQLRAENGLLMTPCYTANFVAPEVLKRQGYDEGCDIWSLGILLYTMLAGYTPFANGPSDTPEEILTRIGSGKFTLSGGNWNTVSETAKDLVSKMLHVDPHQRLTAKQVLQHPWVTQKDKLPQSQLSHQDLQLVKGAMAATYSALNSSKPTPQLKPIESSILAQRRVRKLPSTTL

CC[C@@H]1[C@H](F)C(=O)N[C@@H]1COc1nccc2cc(C(N)=O)c(OC)cc12 [ZIMLOVISERTIB] gave a % of inhibition [1] of 21.5%, a % of inhibition ([2]; at 0.01 µM) of 17.1% and a % of inhibition ([2]; at 0.04 µM) of 2%. The % of inhibition ([2]; at 0.2 µM) was -6.6%, the % of inhibition ([2]; at 1 µM) was -12.9% and the % of inhibition ([2]; at 5 µM) was 16.2%.

Molecule CC(=O)c1cc(-c2ccccc2OCC2CC2)c2ncccn12 has a % of control [3] of 87%.

CCN(CC)CCCCNc1ncc2cc(-c3cc(OC)cc(OC)c3)c(NC(=O)NC(C)(C)C)nc2n1 gave a % of control [4] of 100%.

For Cc1cc(C)cc([C@@H]2c3cc(C)ccc3NC(=O)CN2C(=O)c2ccc(Br)s2)c1, the % of inhibition [5] was -10%.

COc1cc(N(C)c2ccnc3ccc(C(F)(F)F)cc23)cc(OC)c1OC gave a % binding [6] of 100%.

In the case of Nc1cnc(N2CCc3cc(S(=O)(=O)Nc4c(F)cc(Cl)cc4F)cc(N4CCCC4=O)c32)nc1 [TP-020n], the % of control [7] is reported as 78%.

Molecule CCC(=O)N1CCN(c2ccc(-n3c(=O)ccc4cnc5ccc(-c6cnc7ccccc7c6)cc5c43)cc2C(F)(F)F)CC1 has a % of control [8] of 100%.

In the case of C=CC(=O)Nc1cc(-n2c(=O)ccc3cnc4ccc(-c5ccc(NS(C)(=O)=O)cc5)cc4c32)ccc1C, the % of control ([9]; at 1 µM) is reported as 93% and the % of control ([9]; at 10 µM) is reported as 100%.

In the case of CNC(=O)Nc1ccc(-c2nc(N3CC4CCC(C3)O4)c3cnn(C4CCC5(CC4)OCCO5)c3n2)cc1, the % of control [10] is reported as 88%.

With O=C(NOC[C@H](O)CO)c1ccc(F)c(F)c1Nc1ccc(I)cc1F the % of control [11] was 100%.
